pKd: −log10 of the molar value. No end group written: not given here. 5Flu = C-terminal fluorescein
Experiments:
CRIP1a = molecular target: T1, CRIP1a (Rattus norvegicus, UniProt Q5M7A7); assay: Fluorescence polarization of fluorescein-labeled peptides binding to CRIP1a; settings: 20 nM peptide, CRIP1a 0–250 μM, 30 min, room temperature, 25 mM Hepes pH 7.5, 100 mM NaCl, 5 mM MgCl2, 0.1 mM EDTA, 2 mM TCEP, 10% glycerol, λex 470 nm, λem 530 nm, biological quadruplicates, three separate days
T1 sequence (Q5M7A7 1-164): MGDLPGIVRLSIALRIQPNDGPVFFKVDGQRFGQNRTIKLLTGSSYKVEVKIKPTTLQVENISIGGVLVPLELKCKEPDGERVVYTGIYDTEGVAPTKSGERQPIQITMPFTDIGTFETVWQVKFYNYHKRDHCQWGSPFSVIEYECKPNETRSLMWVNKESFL

[1] = molecular target: N-terminally myristoylated 9-mer peptide mimicking the Gαi N terminus (Myr-…-5Flu); assay: fluorescence polarisation

Substance	binding to CRIP1a (in words) (CRIP1a)	pKd [1]
5Flu-SQGKSSC(Farn)-OMe [Rheb-Farn peptide]	inability to bind	
nonmyristoylated Gα peptide: corresponding nonmyristoylated peptide used as the control (GCTLSAEDK-5Flu)	unable to readily bind	
Cannabinoid receptor interacting protein 1a (from UniProt Q5M7A7 1-164) (natural protein)		4.67
Myr-GTASSLVSPK-5Flu [Myr-NHPH3 peptide]	unable to readily bind	

Source: PMC8446797 (The Journal of Biological Chemistry, 2021)
